Series [1] is described as follows: Blood partitioning (LC-MS/MS-based depletion method), mouse. Particulars: whole blood, mice blood, 0.3, 1, 3 μM, read-out: BP (blood-to-plasma concentration ratio). Format: in vitro ADME. The protocol: In this study, the partitioning of IDP-73152 in blood samples obtained from mice, rats, dogs, and humans was determined using the LC-MS/MS-based depletion method with slight modifications. DP-73152 was added to an aliquot (1 mL) of blank blood or plasma at a final concentration of 0.3, 1, or 3 μM. The mixture was incubated at 37 °C in a water bath for 60 min. After the incubation, the plasma was separated by centrifugation of the blood samples for 5 min at 10,000× g/4 °C and stored at -80 °C until analysis. The blood-to-plasma concentration ratio (BP) was calculated using the equation:(3) BP=[…], where […] is the concentration of the compound at the corresponding blood concentration in the plasma, and CPL is the concentration from the plasma sample separated from the incubated blood.

Series [2] can be described thus: Metabolic stability in rat hepatocytes. The format is in vitro ADME. Here is the method:
For the hepatocyte incubation study, rat hepatocytes were freshly prepared using the two-step collagenase perfusion method with slight modifications. After the isolation, cell viability during the preparation process was first determined by a trypan blue exclusion assay prior to the stability study. The preparation was considered adequate for subsequent studies if the viability was greater than 80%. When appropriate, the hepatocytes were resuspended in Williams' media E containing 10% fetal bovine serum, 1% penicillin-streptomycin, and 0.01% insulin-transferrin-selenium (i.e., 10 mg/mL insulin, 5.5 mg/mL transferrin, and 5 mg/mL selenium) at pH 7.4. […] Assuming first-order disappearance kinetics, the slope k of the logarithmically transformed IDP-73152 concentration in the sample versus time plot was determined by the linear regression analysis of the data. The total intrinsic clearance (CLint,mic, μL/min/mg protein for microsomal incubation study and CLint,hep, μL/min/million cells for hepatocytes incubation study) was then calculated using the following equations:(4) CLint, mic=k×Volume of incubation medium (μL)/Protein in incubation medium (mg) (5) CLint,hep=k×Volume of incubation (μL)/Number of cells in incubation (×10^6) The unbound intrinsic clearance, with respect to the whole liver ([…]), was then estimated for the two cases. […]

Series [3] in a line: Tissue distribution at steady state, constant-rate infusion in rats. The format is in vivo. Particulars: for Kp at 10 h: 10 h infusion, read-out: KP,ss. Here is the method: In this study, the extent of tissue distribution of IDP-73152 was also determined in rats. Rats received IDP-73152 at a constant rate of infusion (i.e., the rate of 0.8 mg/h (in 0.6 mL/h)) using a syringe pump (PHD ULTRA, Harvard apparatus, Holliston, MA, USA). The steady state was assumed to have been achieved when IDP-73152 was infused for 10 h (see below). Upon completion of the infusion, the animal was sacrificed, and major tissues (i.e., adipose tissue, brain, heart, kidney, liver, lung, muscle, skin, spleen, and testis) were collected. Assuming the density of tissues to be 1 g/mL, tissue samples were homogenized in twice their volume of phosphate buffered saline using a homogenizer (Ultra Turrax homogenizer, IKA-Werke GmbH & Co. KG, Staufen, Germany). Plasma samples and tissue homogenates were stored at −80 °C until analysis. The tissue-to-plasma concentration ratio at steady state (KP,ss) was then calculated for each tissue using the following equation [23, 24, 25]:(8) KP,ss=Ctissue,ss/Cplasma,ss, where Ctissue,ss and Cplasma,ss represent the concentration of the compound in the tissue and plasma at steady-state.
For the estimation of the volume of the distribution of IDP-73512 in rats, the steady-state volume of distribution (Vss) was calculated using the following equation [30]:(10) Vss=VP+Vrbc×EP+∑VT,i×KP,ss,i, where Vp, Vrbc, and VT,i are the volumes of plasma, red blood cells, and tissues, respectively. The erythrocyte-to-plasma partition coefficient (EP), is calculated by EP=1+(BP−1)/Hematocrit . The KP,ss for each tissue obtained from Equation (8) was applied for Equation (10). For the case of non-eliminating organs, the KP,ss was regarded as the tissue-to-plasma partition coefficient (KP) in PBPK equations (Appendix A). For the case of the liver—i.e., the eliminating organ—the KP,ss (KP,ss,LI) had to be corrected to account for the equilibrium being altered by the elimination. Thus, a PBPK-operative KP for liver (KP,LI) was calculated using the following equation [31]:(11) KP,LI=KP,ss,LI/(1−ER), where ER is the hepatic extraction ratio of the compound (i.e., CLh/(QLI·BP)). In this study, a compartmental absorption and transit (CAT) model consisting of stomach and five intestinal segments was considered for the description of the intestinal absorption kinetics of IDP-73152 in animals and humans. We assumed that the initial compartment denoted the stomach (Equation (12)), and the subsequent three compartments represented the small intestine and two additional compartments for the large intestine (i.e., a total of six compartments, with absorption occurring in the five intestinal compartments) (Equation (13)). The differential equations describing the rate of drug absorption and transit in the gastrointestinal tract can be written as: […]

Here are results for one compound from paper PMC9227536, “Prediction of Pharmacokinetics of IDP-73152 in Humans Using Physiologically-Based Pharmacokinetics” (Pharmaceutics, 2022).

Each structure is given as a SMILES string. Where two headings read alike, the source gives them in different places.

With `CC(C)(C)[C@H](NC(=O)[C@H](CC1CCCC1)CN(O)C=O)C(=O)N1CCC(NCc2cc(F)c(F)cc2F)CC1` [IDP-73152], in series [1], the blood plasma ratio at 60 min was found to be 1.31 ± 0.13. In addition, in series [2] (freshly isolated hepatocytes in suspension, pH 7.4, rat hepatocytes 0.5 × 10^6 cells/mL, 1 μM, read-out: CL,int,hep), the hepatocyte CLint at 1 μM amounted to 27.7 ± 3.2 µL/min/1e6 cells. Moreover, the “CLu,int,H” value in series [2] (rats, scaled from rat hepatocytes) is reported as 6.82 ± 0.79 L/h. Also, the Kp at 10 h in series [3] (Sprague Dawley, rat, intravenous, 0.8 mg/h, adipose tissue) was determined as 0.853 ± 0.196; in series [3] (Sprague Dawley, rat, intravenous, 0.8 mg/h, brain) it was 0.0729 ± 0.0167; in series [3] (Sprague Dawley, rat, intravenous, 0.8 mg/h, heart), 2.15 ± 0.22; in series [3] (Sprague Dawley, rat, intravenous, 0.8 mg/h, kidney), 8.68 ± 1.83; in series [3] (Sprague Dawley, rat, intravenous, 0.8 mg/h, liver), 12.2 ± 3.3; in series [3] (Sprague Dawley, rat, intravenous, 0.8 mg/h, lung), 7.13 ± 1.28. The Kp at 10 h in series [3] (Sprague Dawley, rat, intravenous, 0.8 mg/h, muscle) turned out to be 1.37 ± 0.3; in series [3] (Sprague Dawley, rat, intravenous, 0.8 mg/h, skin), 1.08 ± 0.38; in series [3] (Sprague Dawley, rat, intravenous, 0.8 mg/h, spleen), 4.82 ± 1.3; in series [3] (Sprague Dawley, rat, intravenous, 0.8 mg/h, testis) it was 0.338 ± 0.089. Besides, in series [3] (intravenous infusion 0.8 mg/h, 10 h), the “plasma concentration during infusion” value amounted to 2120 ± 340 ng/mL. In addition, the Vd in series [3] (male, Sprague Dawley, rat, plasma and tissue homogenates, intravenous, 0.8 mg/h, from KP,ss of ten tissues, read-out: Vss calculated by Equation (10)) is 2.09 L/kg. In addition, the concentration at 10 h in series [3] (male, Sprague Dawley, rat, plasma, intravenous infusion 0.8 mg/h for 10 h, from CLp, read-out: expected steady-state concentration) was determined as 2120 ± 340 ng/mL. Further, the concentration at 8 h in series [3] (male, Sprague Dawley, rat, plasma, intravenous infusion 0.8 mg/h, 8 h, read-out: plasma concentration during infusion) was 2070 ± 360 ng/mL. Besides, the concentration at 9 h in series [3] (male, Sprague Dawley, rat, plasma, intravenous infusion 0.8 mg/h, 9 h, read-out: plasma concentration during infusion) worked out at 1910 ± 270 ng/mL.
